In ChEMBL document CHEMBL1201862, “PubChem BioAssay data set” (2004) one finds AC50, IC50 and EC50 data, which are given here for eight compounds.

Calls of active or inactive are those of the source. Bounds are passed on as bounds.

The nature of assay [1]: loss of viability in HepG2 cells – cell-based, CellTiter-Glo, cherry-picked, cytotoxicity control for Shn3 inhibitor project, dose response (AID 624134). In kind it is functional.
The nature of assay [2]: reduction of Shn3 3'UTR-driven luciferase in osteoblasts – cell-based, Clone20 osteoblasts, firefly luciferase, cherry-picked, dose response (AID 624132).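 Also: firefly luciferase luminescence from reporter carrying the Shn3 3'UTR in osteoblasts.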 In kind it is functional.
Assay [3] is described as follows: non-specific 3'UTR reporter inhibition in Clone20-Shn3RL – cell-based, Renilla luciferase, cherry-picked, counter-screen for Shn3 inhibitor project, dose response (AID 624133). In kind it is functional. For orientation: A counterscreen serves to expose hits that act by an unwanted route or on another target.
The nature of assay [4]: Shn3 3'UTR reporter signal decrease – cell-based, Clone20 osteoblasts, firefly luciferase, cherry-pick, set 2, Schnurri-3 inhibitor project, dose response (AID 720490).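 Also: actives lower the luminescence signal as inhibitors.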 It counts as functional.
Assay [5] in a line: EF1alpha-driven Renilla reporter with control 3'UTR suppression – Clone20-Shn3RL cells, dual-Glo, cherry-pick, set 2, counter-screen for Shn3 3'UTR targeting project, dose response (AID 720724). In kind it is functional, cell-based. The conditions noted are these: Dual-Go Shn3RL.
For assay [6], the target named is T1, Sentrin-specific protease 1 (Homo sapiens, UniProt Q9P0U3). Nature of the assay: SENP1 catalytic domain blockers, concentration series – biochemical, kinetic FRET, dose response (AID 651697). In kind it is functional. The conditions noted are these: read-out: IC50_Mean.
Assay [7] has as its target T1, Sentrin-specific protease 1. In words: Dose response confirmation of small molecule inhibitors of the catalytic domain of the SUMO protease, SENP1 in a FRET assay. The conditions noted are these: read-out: IC50_Mean. In kind it is functional.
Assay [8] is described as follows: viability loss in HEK293 cells – cell-based, plate reader, cherry-picked samples, cytotoxicity control, dose response (AID 743446). It counts as functional.
Assay [9] can be described thus: blockade of melanocortin 4 receptor signaling – cell-based, plate reader, cherry pick, counter-screen for LGR2 antagonist project, dose response (AID 743444).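 Also: transfected HEK 293 cells stimulated with alpha-MSH peptide; potency of inhibitors of the alpha-MSH evoked signal.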 It counts as functional.
A short description of assay [10]: A549 cell cytotoxicity, dose response, cytotoxicity control, plate reader, cherry-pick, antagonist series (AID 743412). It counts as functional, cell-based.
A short description of assay [11]: toxicity toward HepG2 liver cells – cell-based, plate reader, cherry-pick, antagonist series, cytotoxicity control, dose response (AID 743416). It counts as functional.
Assay [12] in a line: blockers of bursicon-stimulated LGR2 cAMP reporter – cell-based, HEK293, CRE-luciferase reporter, cherry pick, set 2, dose response (AID 743343).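 Also: transfected cells were stimulated with diluted bursicon conditioned medium after compound addition.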 It counts as functional.
The nature of assay [13]: viability loss in HepG2 hepatoma cells – cell-based, ATP luminescence, cherry-pick, activator set 2, cytotoxicity control, dose response (AID 1053143). In kind it is functional.
Assay [14] has as its target T2, Low molecular weight phosphotyrosine protein phosphatase (Homo sapiens, UniProt P24666).
T2 sequence (P24666 whole entry): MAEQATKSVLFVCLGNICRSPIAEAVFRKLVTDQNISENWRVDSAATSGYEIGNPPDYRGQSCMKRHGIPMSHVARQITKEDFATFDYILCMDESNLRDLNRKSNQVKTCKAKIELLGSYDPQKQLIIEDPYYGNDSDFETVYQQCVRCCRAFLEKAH
In kind it is functional. The conditions noted are these: read-out: IC50_Mean.

Assay [15] addresses T2, Low molecular weight phosphotyrosine protein phosphatase. It counts as functional. The conditions noted are these: read-out: IC50_Mean. This is another data set of the same source.
The target in assay [16] is Photoreceptor-specific nuclear receptor (Homo sapiens, UniProt Q9Y5X4). In kind it is functional, cell-based.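 Also: CHO-S cells with Gal4-NCOR and VP16-NR2E3 two-hybrid luciferase reporter.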
The nature of assay [17]: general cell-killing toxicity readout – plate reader, dry powder samples, cytotoxicity control for PAX8 inhibitor project, dose response (AID 743021). It counts as functional, cell-based.
Assay [18] in a line: OVCAR4 cell viability loss – plate reader, dry powder, SA11, cytotoxicity control for PAX8 inhibitor project, dose response (AID 743150). It counts as functional, cell-based. The conditions noted are these: OVCAR-4.
The nature of assay [19]: COV362 cell viability loss – plate reader, dry powder, SA12, cytotoxicity control for PAX8 inhibitor project, dose response (AID 743144). In kind it is functional, cell-based.
A further assay deals with Paired box protein Pax-8 (Homo sapiens, UniProt Q06710). In words: PAX8 transcriptional activity inhibition in RMG-I – RMG-I cells, luciferase, cherry-pick, dose response (AID 687027).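 Also: luciferase reporter driven by Pax8 target thyroperoxidase promoter measured by SteadyGlo luminescence.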 It counts as functional, cell-based.
The nature of assay [20]: PAX5 cellular inhibition readout – cell-based, plate reader, dry powder samples, selectivity assay for PAX8 inhibitor project, dose response (AID 743047).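 Also: HEK293 cells carrying a Pax5 driven CD19 promoter luciferase reporter; potency of inhibitors that lower reporter luminescence.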 It counts as functional.
Assay [21] in a line: toxicity toward immortalized ovarian surface epithelium – cell-based, plate reader, dry powder samples, cytotoxicity control for PAX8 inhibitor project, dose response (AID 743045). It counts as functional.
The nature of assay [22]: IGROV1 cell killing – plate reader, dry powder samples, PAX8 inhibitor project, dose response (AID 743043). The following applies: IGROV-1. In kind it is functional, cell-based.
The nature of assay [23]: inhibitors acting on PAX2 in cells – cell-based, plate reader, dry powder samples, selectivity assay for PAX8 inhibitor project, dose response (AID 743048).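 Also: HEK293 cells carrying a WT1 promoter luciferase reporter driven by expressed Pax2; potency is for inhibition of Pax2 driven reporter signal.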 In kind it is functional.
Assay [24] is described as follows: COV434 cell viability loss – plate reader, dry powder, SA7, cytotoxicity control for PAX8 inhibitor project, dose response (AID 743145). In kind it is functional, cell-based.
A short description of assay [25]: OVCAR-3 cell viability loss – plate reader, dry powder samples, PAX8 inhibitor project, dose response (AID 743044). It counts as functional, cell-based.
Assay [26] can be described thus: OV-90 cell viability loss – plate reader, dry powder, SA8, PAX8 inhibitor project, dose response (AID 743149). It counts as functional, cell-based.
Assay [27] addresses Arf-GAP with SH3 domain, ANK repeat and PH domain-containing protein 1 (Homo sapiens, UniProt Q9ULH1). It counts as functional.
Assay [28] deals with ADP-ribosylation factor GTPase-activating protein 1 (Rattus norvegicus, UniProt Q62848). Nature of the assay: Fluorescence polarization-based biochemical high throughput dose response screening assay to identify inhibitors of ADP-ribosylation factor GTPase activating protein 1 (ARFGAP1). It counts as functional. Background: In fluorescence polarisation assays a small probe gives low polarisation when free and higher when bound to something large.

Assay [29] addresses T3, Corticotropin-releasing factor receptor 2/Corticotropin-releasing factor-binding protein (Homo sapiens, UniProt P24387+Q13324).
T3 sequence (Q13324 whole entry): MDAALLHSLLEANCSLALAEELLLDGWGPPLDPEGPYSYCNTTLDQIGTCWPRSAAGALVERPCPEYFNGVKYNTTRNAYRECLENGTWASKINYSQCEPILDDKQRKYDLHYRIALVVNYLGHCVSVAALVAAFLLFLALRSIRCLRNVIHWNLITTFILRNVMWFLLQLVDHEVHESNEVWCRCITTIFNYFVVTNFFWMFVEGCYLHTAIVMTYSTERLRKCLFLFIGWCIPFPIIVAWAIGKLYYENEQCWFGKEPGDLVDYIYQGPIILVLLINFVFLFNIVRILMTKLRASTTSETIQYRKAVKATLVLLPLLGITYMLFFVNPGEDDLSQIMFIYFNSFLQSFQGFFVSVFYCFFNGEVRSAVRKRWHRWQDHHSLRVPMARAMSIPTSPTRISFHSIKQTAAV
T3 sequence (P24387 whole entry): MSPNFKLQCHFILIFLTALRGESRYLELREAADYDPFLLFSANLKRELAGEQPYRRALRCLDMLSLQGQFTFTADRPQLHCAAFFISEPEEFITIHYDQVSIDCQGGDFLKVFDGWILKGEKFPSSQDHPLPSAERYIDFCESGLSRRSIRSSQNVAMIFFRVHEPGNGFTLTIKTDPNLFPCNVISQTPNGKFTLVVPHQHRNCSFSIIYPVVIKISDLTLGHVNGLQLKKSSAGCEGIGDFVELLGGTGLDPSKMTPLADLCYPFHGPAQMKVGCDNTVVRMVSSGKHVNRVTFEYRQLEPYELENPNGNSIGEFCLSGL
Nature of the assay: Dose Response confirmation of uHTS hits for small molecule antagonists of the CRF-binding protein and CRF-R2 receptor complex. It counts as functional. The conditions noted are these: read-out: IC50_Mean.

Another assay relates to INS1. In words: INS-1E survival protection against cytokine death – cell-based, luminescence, retest, dose response (AID 449756).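 Also: cell death triggered by IL-1 beta plus TNF-alpha plus IFN-gamma mixture; protective hits raise ATP signal compared with cytokine alone wells.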 In kind it is functional. The conditions noted are these: Rattus norvegicus.
Assay [30] concerns the target T3, Corticotropin-releasing factor receptor 2/Corticotropin-releasing factor-binding protein. Nature of the assay: activators of CRF receptor 2 with binding protein – uHTS hits, confirmation (AID 602473). The following applies: read-out: EC50_Mean. It counts as functional.
The nature of assay [31]: blockers of CRF-binding protein–CRF-R2 complex – cell-based, uHTS hits, 384-well, dose response (AID 651639). In kind it is functional, Homo sapiens. The following applies: read-out: IC50_Mean.

T1 sequence (Q9P0U3 whole entry, the tested form may be a part): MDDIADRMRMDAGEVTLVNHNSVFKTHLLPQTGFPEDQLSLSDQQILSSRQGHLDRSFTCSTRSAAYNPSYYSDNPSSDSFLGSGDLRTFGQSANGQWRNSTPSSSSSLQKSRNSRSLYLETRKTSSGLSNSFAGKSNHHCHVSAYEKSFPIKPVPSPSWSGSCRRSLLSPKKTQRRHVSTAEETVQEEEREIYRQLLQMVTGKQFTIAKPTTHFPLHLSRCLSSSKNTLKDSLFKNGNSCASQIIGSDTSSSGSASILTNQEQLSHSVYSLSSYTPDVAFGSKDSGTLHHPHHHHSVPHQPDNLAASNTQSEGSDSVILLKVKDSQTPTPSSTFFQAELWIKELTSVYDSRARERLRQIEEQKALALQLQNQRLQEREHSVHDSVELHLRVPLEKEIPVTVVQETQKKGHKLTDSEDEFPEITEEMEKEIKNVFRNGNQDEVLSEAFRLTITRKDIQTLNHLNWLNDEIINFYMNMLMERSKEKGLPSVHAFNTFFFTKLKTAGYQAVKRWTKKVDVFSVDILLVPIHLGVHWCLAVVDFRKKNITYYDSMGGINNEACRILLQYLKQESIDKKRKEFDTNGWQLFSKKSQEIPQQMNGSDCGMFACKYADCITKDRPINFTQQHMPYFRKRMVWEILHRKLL
Chain of Photoreceptor-specific nuclear receptor (Q9Y5X4 whole entry, the tested form may be a part): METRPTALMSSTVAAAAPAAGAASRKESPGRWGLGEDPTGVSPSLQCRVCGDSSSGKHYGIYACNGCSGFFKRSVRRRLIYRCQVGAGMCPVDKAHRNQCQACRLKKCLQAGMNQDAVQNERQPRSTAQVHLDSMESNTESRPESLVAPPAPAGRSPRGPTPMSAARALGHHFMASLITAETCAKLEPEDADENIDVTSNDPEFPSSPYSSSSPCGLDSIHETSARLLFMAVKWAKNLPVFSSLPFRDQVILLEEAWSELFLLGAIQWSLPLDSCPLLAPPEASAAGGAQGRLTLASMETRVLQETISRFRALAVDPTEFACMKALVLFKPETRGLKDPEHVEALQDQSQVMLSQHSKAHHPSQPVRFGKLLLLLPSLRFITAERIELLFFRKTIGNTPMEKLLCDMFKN
Chain of ADP-ribosylation factor GTPase-activating protein 1 (Q62848 whole entry): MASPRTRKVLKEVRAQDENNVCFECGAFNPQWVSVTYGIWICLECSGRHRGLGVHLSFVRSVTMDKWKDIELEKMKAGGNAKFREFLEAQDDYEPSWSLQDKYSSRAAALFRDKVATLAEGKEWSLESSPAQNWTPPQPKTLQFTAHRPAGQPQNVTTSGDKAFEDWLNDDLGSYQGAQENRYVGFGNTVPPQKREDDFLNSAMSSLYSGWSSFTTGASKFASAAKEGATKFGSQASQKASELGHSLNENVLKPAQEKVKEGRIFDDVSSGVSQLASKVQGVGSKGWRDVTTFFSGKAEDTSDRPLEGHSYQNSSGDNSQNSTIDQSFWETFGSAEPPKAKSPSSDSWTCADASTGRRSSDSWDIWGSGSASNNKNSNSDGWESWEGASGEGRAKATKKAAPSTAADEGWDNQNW
Chain of Arf-GAP with SH3 domain, ANK repeat and PH domain-containing protein 1 (Q9ULH1 whole entry, the tested form may be a part): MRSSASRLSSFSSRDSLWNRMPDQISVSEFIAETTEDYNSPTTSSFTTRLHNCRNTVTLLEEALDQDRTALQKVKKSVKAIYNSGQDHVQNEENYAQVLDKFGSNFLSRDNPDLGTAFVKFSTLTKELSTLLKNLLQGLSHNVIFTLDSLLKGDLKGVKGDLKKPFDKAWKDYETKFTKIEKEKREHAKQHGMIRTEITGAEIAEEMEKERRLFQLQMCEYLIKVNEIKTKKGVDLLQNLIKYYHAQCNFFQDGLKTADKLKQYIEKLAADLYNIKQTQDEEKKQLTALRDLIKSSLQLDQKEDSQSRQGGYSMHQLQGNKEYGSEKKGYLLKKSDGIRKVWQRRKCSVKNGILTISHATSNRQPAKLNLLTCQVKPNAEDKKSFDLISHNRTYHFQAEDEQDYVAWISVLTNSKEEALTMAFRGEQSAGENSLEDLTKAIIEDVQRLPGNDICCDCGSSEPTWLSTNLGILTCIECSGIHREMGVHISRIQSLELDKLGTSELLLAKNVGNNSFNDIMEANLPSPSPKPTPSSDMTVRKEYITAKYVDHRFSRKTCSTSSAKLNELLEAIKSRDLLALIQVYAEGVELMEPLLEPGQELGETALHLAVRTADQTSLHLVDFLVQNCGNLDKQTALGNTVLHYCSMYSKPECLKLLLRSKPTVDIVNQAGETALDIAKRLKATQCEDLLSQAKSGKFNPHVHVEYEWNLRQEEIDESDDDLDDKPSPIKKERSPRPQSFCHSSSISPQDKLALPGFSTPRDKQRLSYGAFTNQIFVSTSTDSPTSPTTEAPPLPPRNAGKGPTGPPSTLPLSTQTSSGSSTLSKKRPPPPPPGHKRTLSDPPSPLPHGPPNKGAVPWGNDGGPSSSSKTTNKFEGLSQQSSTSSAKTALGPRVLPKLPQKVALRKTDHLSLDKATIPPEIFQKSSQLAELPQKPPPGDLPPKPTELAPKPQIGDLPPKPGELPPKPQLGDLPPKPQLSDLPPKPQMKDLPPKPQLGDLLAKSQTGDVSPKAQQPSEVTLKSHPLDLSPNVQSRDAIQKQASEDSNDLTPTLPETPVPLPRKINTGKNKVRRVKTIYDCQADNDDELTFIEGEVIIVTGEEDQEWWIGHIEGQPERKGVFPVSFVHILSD
Chain of Paired box protein Pax-8 (Q06710 whole entry): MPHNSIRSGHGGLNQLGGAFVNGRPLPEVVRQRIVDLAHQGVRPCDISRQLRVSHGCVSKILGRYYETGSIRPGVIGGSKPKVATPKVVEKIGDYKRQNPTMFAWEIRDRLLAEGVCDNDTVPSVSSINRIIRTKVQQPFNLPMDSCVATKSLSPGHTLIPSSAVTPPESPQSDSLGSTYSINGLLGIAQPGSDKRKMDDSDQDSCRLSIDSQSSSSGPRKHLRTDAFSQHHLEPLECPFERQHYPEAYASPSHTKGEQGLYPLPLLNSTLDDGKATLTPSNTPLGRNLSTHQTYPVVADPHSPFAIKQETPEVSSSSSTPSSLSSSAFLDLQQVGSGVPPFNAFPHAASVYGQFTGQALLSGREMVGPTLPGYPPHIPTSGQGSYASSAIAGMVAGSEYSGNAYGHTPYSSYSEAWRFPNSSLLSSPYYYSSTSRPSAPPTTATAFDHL

Broadly, the AC50 is the concentration giving half of the maximal activity seen. `CCOc1cc(CNCCc2ccc(S(N)(=O)=O)cc2)ccc1OCc1ccccc1`: the AC50 in assay [1] is > 70 µM (inactive); in assay [2], 2.44 µM (active); in [3] it was 25.5 µM (active); in [4], 3.56 µM (active); in [5] it was 31.9 µM (active).

As to `COc1cc(NC2=Nc3cccc4cccc2c34)cc(OC)c1OC`, the IC50 in assay [6] is 68.8 µM (inactive); in assay [7], 19.9 µM (active).

In the case of `O=C(Nc1nc2cc3c(cc2s1)OCCO3)c1cccs1`, the AC50 in assay [8] is > 52 µM (inactive); in [9] it was 3.84 µM (active); in assay [10] it was 28 µM (active); in assay [11], > 52 µM (inactive); in assay [12], 2.01 µM (active); in assay [13], 26 µM (active).

`O=C(OCCNc1nc(-c2ccccc2)nc2ccccc12)c1ccncc1`: the figures for the IC50 in assay [14] and in assay [15] were 24.6 µM (inactive) and 11.8 µM (active), respectively.

In the case of `FC(F)Sc1ccc(NC(=S)N2CCN(c3ccccn3)CC2)cc1`, in [16], the IC50 is 2.52 µM (active).

For `Cc1ccccc1CNC(=O)C1CCCN(c2nnc(C)c3c(C)n(-c4ccccc4)nc23)C1` (stereo not drawn), the AC50 was < 29.5 µM (active) in assay [17]; 61.3 µM (active) in assay [18]; 42.3 µM (active) in [19]; 5.95 µM (active) on Paired box protein Pax-8; 24 µM (active) in [20]; 91.9 µM (active) in assay [21]. Also, the half-maximal activity concentration (AC50) was 32.4 µM (active) in assay [22]; 4.18 µM (active) in [23]; 98.3 µM (active) in [24]; 42.8 µM (active) in assay [25]; 9.9 µM (active) in assay [26].

For the compound `Cc1ccc2nc(SCC(=O)N3CCC(Cc4ccccc4)CC3)nc(=O)n2c1`, the IC50 was 32.7 µM (inactive) in assay [27] and 26.9 µM (inactive) in [28].

Take `O=S(=O)(Nc1nc2ccccc2s1)c1ccc(Cl)s1`: the figures for the IC50 in [29] and in assay [31] were 6.02 µM (active) and 8.22 µM (active), respectively. Besides, the AC50 with INS1 is 31.8 µM (active). Besides, the EC50 in assay [30] was > 53 µM (inactive).
